In PubChem BioAssay (NCI):
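Tested at 5 concentrations; 48 h exposure; 96-well plates; endpoints linearly interpolated, else capped at highest concentration. The concentration for 50% growth inhibition is given as GI50. TGI is the concentration that stops growth completely.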

Assays:
Assay in all cases: NCI-60 cell line screen, 48 h
UACC-62 melanoma = tested on: UACC-62 melanoma
DU-145 prostate = tested on: DU-145 prostate
UACC-257 melanoma = tested on: UACC-257 melanoma
SK-MEL-5 melanoma = tested on: SK-MEL-5 melanoma
HCT-15 colon = tested on: HCT-15 colon
SF-295 CNS = tested on: SF-295 CNS
UO-31 renal = tested on: UO-31 renal
ACHN renal = tested on: ACHN renal
OVCAR-8 ovarian = tested on: OVCAR-8 ovarian
MCF7 breast = tested on: MCF7 breast

Structure (SMILES) | GI50 (UACC-62 melanoma) | TGI (UACC-62 melanoma) | GI50 (DU-145 prostate) | TGI (DU-145 prostate) | GI50 (UACC-257 melanoma) | TGI (UACC-257 melanoma) | GI50 (SK-MEL-5 melanoma) | TGI (SK-MEL-5 melanoma) | GI50 (HCT-15 colon) | TGI (HCT-15 colon) | GI50 (SF-295 CNS) | TGI (SF-295 CNS) | GI50 (UO-31 renal) | TGI (UO-31 renal) | GI50 (ACHN renal) | TGI (ACHN renal) | GI50 (OVCAR-8 ovarian) | TGI (OVCAR-8 ovarian) | GI50 (MCF7 breast) | TGI (MCF7 breast)
COc1ccc(/C=C2\CCCC3=C2N=C2SC=NN2C3c2ccc(OC)c(OC)c2)cc1OC (centres undefined) | 4.21 µM | 80 µM | 23 µM | > 100 µM | 10.5 µM | > 100 µM | 16.4 µM | > 100 µM | 5.58 µM | 60.5 µM | 32.7 µM | > 100 µM | 15.3 µM | > 100 µM | 7.71 µM | > 100 µM | 5.51 µM | > 100 µM | 2.42 µM | > 100 µM
COc1ccc2c(c1)c(=O)oc1cc(OC/C(=N\O)c3ccc(F)cc3)ccc12 | 15.1 µM | 31.2 µM | 33.3 µM | > 100 µM | 25.4 µM | 91.1 µM | 16.6 µM | 30.8 µM | 20.5 µM | 61.2 µM | 20.2 µM | 49.1 µM | 14.3 µM | 28.9 µM | 21 µM | 55.4 µM | 27.3 µM | 97.5 µM | 19.8 µM | 66 µM
CC1=NN(c2ccccc2)C(=O)C1C(=O)C(=O)Nc1ccc(C)cc1C (centres undefined) |  | > 100 µM |  | > 100 µM |  | > 100 µM |  | > 100 µM |  | > 100 µM |  | > 100 µM |  | > 100 µM |  | > 100 µM |  | > 100 µM |  | > 100 µM
Nc1nn(C(=O)Nc2ccc(Cc3ccccc3)cc2)c2ccccc12 | 0.353 µM | > 100 µM | 1.02 µM | 28.3 µM | 10 µM | 50.9 µM | 2.22 µM | 8.64 µM | 1.08 µM | > 100 µM | 0.53 µM | > 100 µM | 0.347 µM | > 100 µM | 1.69 µM | 33.4 µM | 21.9 µM | 63.9 µM | 0.555 µM | 8.82 µM
COc1ccc(-c2oncc2-c2cc(OC)c3c(c2)OCO3)cc1 | 2.85 µM | 57.7 µM | 3.93 µM | > 100 µM | > 20 µM | > 100 µM | 2.84 µM | 14.1 µM | 1.2 µM | > 100 µM | 2.13 µM | 10.3 µM | 4.46 µM | 55.9 µM | 4.81 µM | > 100 µM | 4.86 µM | > 100 µM | 1.59 µM | > 100 µM
CC(=O)/C=C/c1ccc(N(C)Cc2ccc(C(C)(C)C)cc2)cc1 | 113 µM | 255 µM | 147 µM | 472 µM | 143 µM | 335 µM | 55.1 µM | 184 µM | 89.7 µM | 327 µM | 162 µM | 576 µM | 83.2 µM | 212 µM | 137 µM | 271 µM | 148 µM | 516 µM | 45.5 µM | 318 µM
O=C(Nc1ncc(Cc2ccc(Cl)cc2)s1)c1ccc2c(c1)OCCO2 | 0.0543 µM | > 100 µM | 0.05 µM | 9.38 µM | 5.8 µM | > 100 µM | 0.0539 µM | 1.42 µM | 0.0477 µM | > 100 µM | 0.0424 µM | 2.02 µM | 0.0834 µM | > 100 µM | 0.0645 µM | > 54.5 µM | 0.17 µM | > 100 µM | 0.0661 µM | > 100 µM
COc1ccc2cc(C(=O)/C=C/c3ccccc3OC)ccc2c1 | 1.88 µM | 11.9 µM | 2.63 µM | 8.07 µM | 9.78 µM | 27.9 µM | 2.75 µM | 15.9 µM | 1.67 µM | 14.3 µM | 1.59 µM | 7.2 µM | 5.93 µM | 18.8 µM | 2.97 µM | 15.6 µM | 2.71 µM | 7.34 µM |  | > 100 µM
C(#Cc1ccccc1C#Cc1ccccn1)c1ccc(OCCCCCCOc2ccc(C#Cc3ccccc3C#Cc3ccccn3)cc2)cc1 | 0.35 µM | 5.46 µM | 6.36 µM | 13 µM | 5.92 µM | 12.7 µM | 1.73 µM | 7.26 µM | 1.76 µM | 9.37 µM | 1.32 µM | 5.08 µM | 2.02 µM | 21.4 µM | 1.2 µM | 7.95 µM | 4.16 µM | 14.6 µM | 1.62 µM | 8.29 µM
